Source: PMC8272136, “Discovery of New Pyrazolopyridine, Furopyridine, and Pyridine Derivatives as CDK2 Inhibitors: Design, Synthesis, Docking Studies, and Anti-Proliferative Activity” (Molecules, 2021)
Where “and” joins values, the source holds several entries; their conditions need not be identical. Identical values can stand only once. Like-named read-outs stand apart in the source and are kept apart here.

What was measured:
[1] = tested on: HCT-116 (human colorectal carcinoma) cells; assay: MTT cytotoxicity assay, HCT-116; format: cell-based; settings: 48 h, read-out: IC50 (µM) ± SD HCT-116
Method: (§1) In this study, ten compounds were examined in vitro for their activities against HCT-116, MCF-7, HepG2, and A549 human cancer cells using the MTT assay. The percentages of intact cells were calculated and compared to those of the control. The activities of these compounds against the four cell lines were compared to the activity of doxorubicin as well. […] In order to study the efficacy of the synthesized compounds, a comparison of the cytotoxic effect of each compound has been related to the cytotoxicity of the reference drug as follows.
(§2) Cell cultures of HCT-116 (human colorectal carcinoma), MCF-7 (human breast adenocarcinoma), HepG2 (human hepatocellular carcinoma), and A549 (human lung carcinoma) cell lines were purchased from the American Type Culture Collection (Rockville, MD, USA) and maintained in DMEM medium that was supplemented with 10% heat-inactivated FBS (fetal bovine serum), 100 U/mL penicillin, and […] streptomycin. The cells were grown at 37 °C in a humidified atmosphere of 5% CO2.
(§3) The anticancer activity against HCT-116, HepG2, A549, and MCF-7 human cancer cell lines was estimated using the 3-[4,5-dimethyl-2-thiazolyl)-2,5-diphenyl-2H-tetrazolium bromide (MTT) assay, which is based on the reduction of the tetrazolium salt by mitochondrial dehydrogenases in viable cells. Cells were dispensed in a 96-well sterile microplate (5 × 10^4 cells/well) and incubated at 37 °C with a series of different concentrations, in DMSO, of each tested compound or doxorubicin (positive control) for 48 h in a serum-free medium prior to the MTT assay. After incubation, media were carefully removed, and 40 µL of MTT (2.5 mg/mL) were added to each well and then incubated for an additional 4 h. The purple formazan dye crystals were solubilized by the addition of 200 µL of DMSO. The absorbance was measured at 570 nm using a Spectra Max Paradigm Multi-Mode microplate reader. The relative cell viability was expressed as the mean percentage of viable cells compared to the untreated control cells. All experiments were conducted in triplicate and repeated on three different days. All the values were represented as mean ± SD. IC50s were determined by probit analysis by SPSS Incprobit analysis (IBM Corp., Armonk, NY, USA).

[2] = molecular target: T1, CDK2/cyclin A2 protein kinase (Homo sapiens, UniProt P24941); design: method as in PMID 33390512, PMID 22119131; settings: external test set of QSAR model, reported compounds V, VI; read-out: Experimental Activity (IC50/μM); cited from earlier work
[3] = molecular target: T1, CDK2/cyclin A2 protein kinase; assay: CDK2/cyclin A2 kinase assay (Promega Kinase-Glo Plus luminescence kit); format: biochemical
From the text: It measures kinase activity by quantitating the amount of ATP remaining in solution following a kinase reaction. The luminescent signal from the assay is correlated with the amount of ATP present and is inversely correlated with the amount of kinase activity. […] The computer software Graphpad Prism was used for analyzing the luminescence data. The difference between luminescence intensities in the absence of CDK2/cyclin A2 protein kinase (Lut) and in the presence of kinase (Luc) was defined as 100% activity (Lut − Luc). Using luminescence signal (Lu) in the presence of the compound, the percentage of activity was calculated as: % activity = {(Lut − Lu)/(Lut − Luc)} × 100%, where Lu = the luminescence intensity in the presence of the compound.

[4] = tested on: A549 (human lung carcinoma) cells; assay: MTT cytotoxicity assay, A549; format: cell-based; settings: 48 h, read-out: IC50 (µM) ± SD A549
Method: as §1, §2, §3

[5] = tested on: MCF-7 (human breast adenocarcinoma) cells; assay: MTT cytotoxicity assay, MCF-7; format: cell-based; settings: MCF7, 48 h, read-out: IC50 (µM) ± SD MCF-7
Method: as §1, §2, §3

[6] = tested on: HepG2 (human hepatocellular carcinoma) cells; assay: MTT cytotoxicity assay, HepG2; format: cell-based; settings: 48 h, read-out: IC50 (µM) ± SD HepG2
Method: as §1, §2, §3

[7] = CDK2/cyclin A2, Kinase-Glo Plus luminescence, read-out: CDK2 IC50 (µM) ± SD

SMILES	IC50 [3, 7]	melting point [°C]	IC50 ([3]; external test set of QSAR model, compound 8, CDK2, read-out: Experimental Activity (IC50/μM)) [µM]	IC50 [1] [µM]	IC50 [2] [µM]	IC50 [4] [µM]	IC50 [5] [µM]	IC50 [6] [µM]
COc1cccc2c1C(=O)c1c(O)c3c(c(O)c1C2=O)C[C@@](O)(C(=O)CO)C[C@@H]3O[C@H]1C[C@H](N)[C@H](O)[C@H](C)O1 [Doxorubicin, reference compound]				40 ± 3.9				
N#Cc1c(N)nc2[nH]c(=S)sc2c1-c1cccs1 [VI]					0.139			
Oc1nc(-c2cccs2)c2sc(=S)[nH]c2n1 [V]					0.743			
N#Cc1c(-c2cccs2)cc(-c2ccc3ccccc3c2)nc1OC(=O)CCl [compound 2, 3-Cyano-6-(naphthalen-2-yl)-4-(thiophen-2-yl)pyridin-2-yl 2-chloroacetate]	1.79 ± 0.1 µM	165 to 166		43.5 ± 4.5		70.7 ± 4.1	21.3 ± 3.1	29.4 ± 3.5
N#Cc1c(-c2cccs2)cc(-c2ccc3ccccc3c2)nc1Nc1ccccc1 [compound 6, 6-(Naphthalen-2-yl)-2-(phenylamino)-4-(thiophen-2-yl)nicotinonitrile]		130 to 131						
Nc1n[nH]c2nc(-c3ccc4ccccc4c3)cc(-c3cccs3)c12 [compound 8, 6-(Naphthalen-2-yl)-4-(thiophen-2-yl)-1H-pyrazolo[3,4-b]pyridin-3-amine]	0.65 µM and 0.651 µM	175 to 176	0.651	33.7 ± 3.3		43.8 ± 4.1	19.3 ± 2.1	29.1 ± 3.5
N#Cc1c(-c2cccs2)cc(-c2ccc3ccccc3c2)nc1SC(=O)CCl [compound 11, S-(3-Cyano-6-(naphthalen-2-yl)-4-(thiophen-2-yl)pyridin-2-yl)2-chloroethanethioate]	0.5 µM and 0.504 µM	160 to 161		31.7 ± 3.5		56.9 ± 4.6	46.4 ± 4.3	27.6 ± 3.3
CCOC(=O)COc1nc(-c2ccc3ccccc3c2)cc(-c2cccs2)c1C#N [compound 13]	4.45 ± 0.2 µM			32.4 ± 3.1		45.9 ± 4.3	37.6 ± 3.5	30.2 ± 3.7
CCOC(=O)c1oc2nc(-c3ccc4ccccc4c3)cc(-c3cccs3)c2c1N [compound 14, Ethyl-3-amino-6-(naphthalen-2-yl)-4-(thiophen-2-yl)furo[2,3-b]pyridine-2-carboxylate]	0.93 µM and 0.928 µM	185 to 186		31.3 ± 3.3		56.5 ± 4.8	26.1 ± 3.9	27.9 ± 3.5
O=c1[nH]cnc2c1oc1nc(-c3ccc4ccccc4c3)cc(-c3cccs3)c12 [compound 15, 7-(Naphthalen-2-yl)-9-(thiophen-2-yl)pyrido[3′,2′:4,5]furo[3,2-d]pyrimidin-4(3H)-one]		197 to 198						

Second part, led by results:

IC50 [3, 7]	melting point [°C]	IC50 ([3]; external test set of QSAR model, compound 8, CDK2, read-out: Experimental Activity (IC50/μM)) [µM]	SMILES	IC50 [1] [µM]	IC50 [2] [µM]	IC50 [4] [µM]	IC50 [5] [µM]	IC50 [6] [µM]
0.57 ± 0.1 µM			N#Cc1c(-c2cccs2)cc(-c2ccc3ccccc3c2)[nH]c1=O [compound 1, 6-(naphthalen-2-yl)-2-oxo-4-(thiophen-2-yl)-1,2-dihydropyridine-3-carbonitrile]	39.1 ± 4.2		60.6 ± 4.8	47 ± 4.5	27.9 ± 3.1
1.01 ± 0.1 µM	172 to 173		N#Cc1c(-c2cccs2)cc(-c2ccc3ccccc3c2)nc1OC1=NC(=S)NC1 [compound 3, 6-(Naphthalen-2-yl)-4-(thiophen-2-yl)-2-((2-thioxo-2,5-dihydro-1H-imidazol-4-yl)oxy)nicotinonitrile]	49 ± 5.1		57.4 ± 4.5	37.3 ± 4.1	44.8 ± 4.1
0.24 µM and 0.236 µM			N#Cc1c(-c2cccs2)cc(-c2ccc3ccccc3c2)nc1Cl [compound 4, 2-chloro-6-(naphthalen-2-yl)-4-(thiophen-2-yl)nicotinonitrile]	45.9 ± 4.1		67.2 ± 5.1	46.2 ± 4.1	42.9 ± 3.9
3.53 ± 0.2 µM	125 to 126		COc1nc(-c2ccc3ccccc3c2)cc(-c2cccs2)c1C#N [compound 5, 2-Methoxy-6-(naphthalen-2-yl)-4-(thiophen-2-yl)nicotinonitrile]	33.8 ± 3.5		47.6 ± 4.5	55.5 ± 4.5	27.2 ± 3.1
1.27 ± 0.1 µM			N#Cc1c(-c2cccs2)cc(-c2ccc3ccccc3c2)[nH]c1=S [compound 7]	37.8 ± 3.9		36.8 ± 4.1	27.4 ± 2.4	22.7 ± 2.9
